According to paper PMC8855368 (Journal of medicinal chemistry, 2019):

Legend:
GSTO1–1 = molecular target: T1, GSTO1–1 (Homo sapiens, UniProt P78417); details: GSTO1–1 binding assay
T1 sequence (P78417 1-241): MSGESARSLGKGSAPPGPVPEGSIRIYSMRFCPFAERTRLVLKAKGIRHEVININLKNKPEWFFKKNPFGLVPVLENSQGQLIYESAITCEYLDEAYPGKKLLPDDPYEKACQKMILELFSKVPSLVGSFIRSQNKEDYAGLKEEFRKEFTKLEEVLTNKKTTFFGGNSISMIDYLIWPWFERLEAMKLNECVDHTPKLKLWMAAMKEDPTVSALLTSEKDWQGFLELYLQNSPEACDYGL

HCT116 = assay: MTT cell viability assay, HCT116; assay type: cell-based; details: read-out: IC50-MTT HCT116; HCT116, 72 h; values of two independent experiments
[1] = Stability in 20% acetonitrile/PBS buffer by LC–MS; assay type: physicochemical; details: room temperature overnight

Structure (SMILES)	GSTO1–1 binding activity (in words) (GSTO1–1)	also measured
C=CC(=O)Nc1cnn(-c2ccccc2)c1 [Compound 5, N-(1-Phenyl-1H-pyrazol-4-yl)acrylamide]	inactive	–
C=CC(=O)Nc1cnn(Cc2ccccc2)c1 [Compound 6, N-(1-Benzyl-1H-pyrazol-4-yl)acrylamide]	inactive	–
C=CC(=O)N1CCC(c2ccccc2)CC1 [Compound 7, 1-(4-Phenylpiperidin-1-yl)prop-2-en-1-one]	did not possess significant GSTO1–1 binding activity	–
C=CC(=O)N1CCC(Cc2ccccc2)CC1 [Compound 8, 1-(4-Benzylpiperidin-1-yl)prop-2-en-1-one]	did not possess significant GSTO1–1 binding activity	–
C=CC(=O)Nc1nc(-c2ccc(O)cc2)cs1 [Compound 25, N-(4-(4-Hydroxylphenyl)thiazol-2-yl)acrylamide]	–	IC50 (HCT116): 7.1 µM
C=CC(=O)Nc1nc(-c2ccccc2OC)cs1 [Compound 26, N-(4-(2-Methoxyphenyl)thiazol-2-yl)acrylamide]	inactive	–
C=CC(=O)N(Cc1cc(C)no1)c1nc(-c2ccccc2O)cs1 [Compound 49, N-((3-Methylisoxazol-5-yl)methyl)-N-(4-(2-hydroxylphenyl)thiazol-2-yl)acrylamide]	–	stability in 20% acetonitrile/PBS buffer solution [1]: good stability
